The CheMixHub viscosity set
± gives the uncertainty stated by the source.

Assay: xn = mol fraction of the nth substance listed

CC(=O)OCc1ccccc1 + CCCCO
viscosity [mPa·s], 101.33 kPa
Settings	x1 = 0.1023	x1 = 0.1976	x1 = 0.3075	x1 = 0.4014	x1 = 0.5022	x1 = 0.5973	x1 = 0.7048	x1 = 0.8005	x1 = 0.8914
293.15 K	2.803 ± 0.3	2.748 ± 0.3	2.685 ± 0.3	2.633 ± 0.29	2.578 ± 0.29	2.527 ± 0.28	2.471 ± 0.28	2.422 ± 0.27	2.376 ± 0.27
303.15 K	2.224 ± 0.26	2.18 ± 0.26	2.129 ± 0.25	2.087 ± 0.25	2.043 ± 0.24	2.002 ± 0.24	1.957 ± 0.24	1.918 ± 0.23	1.881 ± 0.23
313.15 K	1.66 ± 0.21	1.641 ± 0.21	1.619 ± 0.21	1.6 ± 0.21	1.581 ± 0.21	1.562 ± 0.2	1.542 ± 0.2	1.524 ± 0.2	1.507 ± 0.2
323.15 K	1.104 ± 0.17	1.116 ± 0.17	1.131 ± 0.17	1.144 ± 0.17	1.158 ± 0.17	1.172 ± 0.17	1.187 ± 0.17	1.201 ± 0.18	1.214 ± 0.18

CCCCCCCCCCCCCCCC + CCCCO
101 kPa
Settings	viscosity [mPa·s]
298.15 K, x2 = 0.3	2.675 ± 0.017
323.15 K, x2 = 0.8	1.435 ± 0.011

ClC(Cl)Cl + CCCCO
viscosity [mPa·s], 303.15 K
Settings	101 kPa	101.3 kPa
x2 = 0.0563	0.5315 ± 0.0045	0.5315 ± 0.014
x2 = 0.0995	0.5491 ± 0.0046	0.5491 ± 0.015
x2 = 0.1395	0.5709 ± 0.0048	0.5709 ± 0.015
x2 = 0.1858	0.6001 ± 0.005	0.6001 ± 0.016
x2 = 0.2305	0.6329 ± 0.0053	0.6329 ± 0.017
x2 = 0.2878	0.6839 ± 0.0056	0.6839 ± 0.018
x2 = 0.301	0.6958 ± 0.0057	0.6958 ± 0.018
x2 = 0.3666	0.7663 ± 0.0063	0.7663 ± 0.02
x2 = 0.4891	0.9373 ± 0.0075	0.9373 ± 0.025
x2 = 0.5662	1.076 ± 0.0085	1.076 ± 0.028
x2 = 0.6718	1.314 ± 0.01	1.314 ± 0.035
x2 = 0.7659	1.574 ± 0.012	1.574 ± 0.042
x2 = 0.8333	1.78 ± 0.014	1.78 ± 0.047
x2 = 0.9386	2.107 ± 0.016	2.107 ± 0.056
